From ChEMBL document CHEMBL1133206, “Antifungal rapamycin analogues with reduced immunosuppressive activity” (Bioorg Med Chem Lett, 2000)
Converted amounts (≈) assume the structure as drawn.

Key:
Nakaseomyces glabratus = experiment: In vitro antifungal activity against Torulopsis glabrata (TG 15545); format: functional
Candida albicans [1] = experiment: In vitro for antifungal activity against Candida albicans (CA 579a); format: functional
Candida albicans [2] = experiment: In vitro antifungal activity against Candida albicans (CA 10231); format: functional
Candida tropicalis = experiment: In vitro antifungal activity against Candida tropicalis (CT 750); format: functional
Aspergillus niger = experiment: In vitro antifungal activity at a minimum inhibitory concentration (~100 ug/mL) against Aspergillus niger; Not affected; format: functional
Candida albicans [3] = experiment: In vitro antifungal activity against Candida albicans (CA 442); Weak; format: functional, organism-based
Pichia kudriavzevii = experiment: In vitro antifungal activity against Candida krusei (CK 28838); format: functional
Candida albicans [4] = experiment: In vitro antifungal activity against […] (CA 34140); Not affected.; format: functional
Candida albicans [5] = experiment: In vitro antifungal activity against Candida albicans (CA 62376); Weak; format: functional, organism-based
Candida albicans [6] = experiment: In vitro antifungal activity against Candida albicans (CA 38247); Weak; format: functional, organism-based
Homo sapiens = species: Homo sapiens; experiment: Inhibitory activity against human concanavalin-A proliferation assay; format: functional
[7] = Aspergillus niger, read-out: MIC

MIC (Nakaseomyces glabratus)	MIC (Candida albicans [1])	MIC (Candida albicans [2])	MIC (Candida tropicalis)	MIC (Aspergillus niger; [7])	MIC (Candida albicans [3])	MIC (Pichia kudriavzevii)	MIC (Candida albicans [4])	MIC (Candida albicans [5])	MIC (Candida albicans [6])	MIC (Aspergillus niger)	SMILES	IC50 (Homo sapiens)
1.56 µg/mL (≈ 1.52 µM)	1.56 µg/mL (≈ 1.52 µM)	1.56 µg/mL (≈ 1.52 µM)	6.25 µg/mL (≈ 6.09 µM)	~100 µg/mL (≈ 97.4 µM)	Weak	1.56 µg/mL (≈ 1.52 µM)	~100 µg/mL (≈ 97.4 µM)	Weak	Weak		CO[C@@H]1C[C@H](C[C@@H](C)[C@@H]2CC(=O)[C@H](C)/C=C(\C)[C@@H](O)[C@@H](OC)C(=O)[C@H](C)C[C@H](C)/C=C/C=C/C=C(\C)[C@H](N(O)C(=O)N3CCCCC3)C[C@@H]3CC[C@@H](C)[C@@](O)(O3)C(=O)C(=O)N3CCCC[C@H]3C(=O)O2)CC[C@H]1O	786 nM
3.12 µg/mL (≈ 3.16 µM)	100 µg/mL (≈ 101 µM)	100 µg/mL (≈ 101 µM)	50 µg/mL (≈ 50.7 µM)	~100 µg/mL (≈ 101 µM)	Weak		~100 µg/mL (≈ 101 µM)	Weak	Weak		CO[C@@H]1C[C@H](C[C@@H](C)[C@@H]2CC(=O)[C@H](C)/C=C(\C)[C@@H](O)[C@@H](OC)C(=O)[C@H](C)C[C@H](C)/C=C/C=C/C=C(\C)[C@H](N(O)C(=O)N(C)C)C[C@@H]3CC[C@@H](C)[C@@](O)(O3)C(=O)C(=O)N3CCCC[C@H]3C(=O)O2)CC[C@H]1O	2030 nM
0.78 µg/mL (≈ 0.796 µM)	12.5 µg/mL (≈ 12.8 µM)	3.12 µg/mL (≈ 3.18 µM)	1.56 µg/mL (≈ 1.59 µM)	~100 µg/mL (≈ 102 µM)	Weak	1.56 µg/mL (≈ 1.59 µM)	~100 µg/mL (≈ 102 µM)	Weak	Weak		CO[C@@H]1C[C@H](C[C@@H](C)[C@@H]2CC(=O)[C@H](C)/C=C(\C)[C@@H](O)[C@@H](OC)C(=O)[C@H](C)C[C@H](C)/C=C/C=C/C=C(\C)[C@H](c3ccc(C)s3)C[C@@H]3CC[C@@H](C)[C@@](O)(O3)C(=O)C(=O)N3CCCC[C@H]3C(=O)O2)CC[C@H]1O	221 nM
0.78 µg/mL (≈ 0.801 µM)	6.25 µg/mL (≈ 6.42 µM)	3.12 µg/mL (≈ 3.21 µM)	3.12 µg/mL (≈ 3.21 µM)	~100 µg/mL (≈ 103 µM)	Weak	0.39 µg/mL (≈ 0.401 µM)	~100 µg/mL (≈ 103 µM)	Weak	Weak		COC(=O)N(O)[C@@H]1C[C@@H]2CC[C@@H](C)[C@@](O)(O2)C(=O)C(=O)N2CCCC[C@H]2C(=O)O[C@H]([C@H](C)C[C@@H]2CC[C@@H](O)[C@H](OC)C2)CC(=O)[C@H](C)/C=C(\C)[C@@H](O)[C@@H](OC)C(=O)[C@H](C)C[C@H](C)/C=C/C=C/C=C/1C	16 nM
3.12 µg/mL (≈ 3.03 µM)	50 µg/mL (≈ 48.6 µM)	25 µg/mL (≈ 24.3 µM)	25 µg/mL (≈ 24.3 µM)	~100 µg/mL (≈ 97.2 µM)	Weak	6.25 µg/mL (≈ 6.08 µM)	~100 µg/mL (≈ 97.2 µM)	Weak	Weak		CO[C@@H]1C[C@H](C[C@@H](C)[C@@H]2CC(=O)[C@H](C)/C=C(\C)[C@@H](O)[C@@H](OC)C(=O)[C@H](C)C[C@H](C)/C=C/C=C/C=C(\C)[C@@H](N(O)C(=O)N3CCOCC3)C[C@@H]3CC[C@@H](C)[C@@](O)(O3)C(=O)C(=O)N3CCCC[C@H]3C(=O)O2)CC[C@H]1O	1620 nM
0.78 µg/mL (≈ 0.768 µM)	1.56 µg/mL (≈ 1.54 µM)	1.56 µg/mL (≈ 1.54 µM)	1.56 µg/mL (≈ 1.54 µM)	~100 µg/mL (≈ 98.5 µM)	Weak	0.78 µg/mL (≈ 0.768 µM)	~100 µg/mL (≈ 98.5 µM)	Weak	Weak		CCCCOC(=O)N(O)[C@@H]1C[C@@H]2CC[C@@H](C)[C@@](O)(O2)C(=O)C(=O)N2CCCC[C@H]2C(=O)O[C@H]([C@H](C)C[C@@H]2CC[C@@H](O)[C@H](OC)C2)CC(=O)[C@H](C)/C=C(\C)[C@@H](O)[C@@H](OC)C(=O)[C@H](C)C[C@H](C)/C=C/C=C/C=C/1C	83 nM
3.12 µg/mL (≈ 3.12 µM)	> 100 µg/mL	> 100 µg/mL	50 µg/mL (≈ 50 µM)	~100 µg/mL (≈ 100 µM)	Weak	3.12 µg/mL (≈ 3.12 µM)	~100 µg/mL (≈ 100 µM)	Weak	Weak		CO[C@@H]1C[C@H](C[C@@H](C)[C@@H]2CC(=O)[C@H](C)/C=C(\C)[C@@H](O)[C@@H](OC)C(=O)[C@H](C)C[C@H](C)/C=C/C=C/C=C(\C)[C@@H](N(OC)C(=O)N(C)C)C[C@@H]3CC[C@@H](C)[C@@](O)(O3)C(=O)C(=O)N3CCCC[C@H]3C(=O)O2)CC[C@H]1O	3610 nM
1.56 µg/mL (≈ 1.6 µM)	50 µg/mL (≈ 51.4 µM)	25 µg/mL (≈ 25.7 µM)	25 µg/mL (≈ 25.7 µM)	~100 µg/mL (≈ 103 µM)	Weak	1.56 µg/mL (≈ 1.6 µM)	~100 µg/mL (≈ 103 µM)	Weak	Weak		COC(=O)N(O)[C@H]1C[C@@H]2CC[C@@H](C)[C@@](O)(O2)C(=O)C(=O)N2CCCC[C@H]2C(=O)O[C@H]([C@H](C)C[C@@H]2CC[C@@H](O)[C@H](OC)C2)CC(=O)[C@H](C)/C=C(\C)[C@@H](O)[C@@H](OC)C(=O)[C@H](C)C[C@H](C)/C=C/C=C/C=C/1C	1.47 nM
	50 µg/mL (≈ 50.5 µM)	50 µg/mL (≈ 50.5 µM)	> 100 µg/mL			6.25 µg/mL (≈ 6.32 µM)					CO[C@H]1C[C@@H]2CC[C@@H](C)[C@@](O)(O2)C(=O)C(=O)N2CCCC[C@H]2C(=O)O[C@H]([C@H](C)C[C@@H]2CC[C@@H](OC(=O)N(C)C)[C@H](OC)C2)CC(=O)[C@H](C)/C=C(\C)[C@@H](O)[C@@H](OC)C(=O)[C@H](C)C[C@H](C)CCCC/C=C/1C	485 nM
1.56 µg/mL (≈ 1.56 µM)	50 µg/mL (≈ 50 µM)	50 µg/mL (≈ 50 µM)	50 µg/mL (≈ 50 µM)	~100 µg/mL (≈ 100 µM)	Weak	1.56 µg/mL (≈ 1.56 µM)	~100 µg/mL (≈ 100 µM)	Weak	Weak		CO[C@@H]1C[C@H](C[C@@H](C)[C@@H]2CC(=O)[C@H](C)/C=C(\C)[C@@H](O)[C@@H](OC)C(=O)[C@H](C)C[C@H](C)/C=C/C=C/C=C(\C)[C@H](N(OC)C(=O)N(C)C)C[C@@H]3CC[C@@H](C)[C@@](O)(O3)C(=O)C(=O)N3CCCC[C@H]3C(=O)O2)CC[C@H]1O	6.5 nM
3.12 µg/mL (≈ 3.16 µM)	100 µg/mL (≈ 101 µM)	100 µg/mL (≈ 101 µM)	50 µg/mL (≈ 50.7 µM)	~100 µg/mL (≈ 101 µM)	Weak		~100 µg/mL (≈ 101 µM)	Weak	Weak		CO[C@@H]1C[C@H](C[C@@H](C)[C@@H]2CC(=O)[C@H](C)/C=C(\C)[C@@H](O)[C@@H](OC)C(=O)[C@H](C)C[C@H](C)/C=C/C=C/C=C(\C)[C@@H](N(O)C(=O)N(C)C)C[C@@H]3CC[C@@H](C)[C@@](O)(O3)C(=O)C(=O)N3CCCC[C@H]3C(=O)O2)CC[C@H]1O	2030 nM
0.78 µg/mL (≈ 0.753 µM)	3.12 µg/mL (≈ 3.01 µM)	1.56 µg/mL (≈ 1.51 µM)	0.78 µg/mL (≈ 0.753 µM)	~100 µg/mL (≈ 96.6 µM)	Weak	0.78 µg/mL (≈ 0.753 µM)	~100 µg/mL (≈ 96.6 µM)	Weak	Weak		CO[C@@H]1C[C@H](C[C@@H](C)[C@@H]2CC(=O)[C@H](C)/C=C(\C)[C@@H](O)[C@@H](OC)C(=O)[C@H](C)C[C@H](C)/C=C/C=C/C=C(\C)[C@H](N(O)C(=O)Oc3ccccc3)C[C@@H]3CC[C@@H](C)[C@@](O)(O3)C(=O)C(=O)N3CCCC[C@H]3C(=O)O2)CC[C@H]1O	170 nM
0.78 µg/mL (≈ 0.779 µM)	12.5 µg/mL (≈ 12.5 µM)	6.25 µg/mL (≈ 6.24 µM)	25 µg/mL (≈ 25 µM)	~100 µg/mL (≈ 99.9 µM)	Weak	0.78 µg/mL (≈ 0.779 µM)	~100 µg/mL (≈ 99.9 µM)	Weak	Weak		CO[C@@H]1C[C@H](C[C@@H](C)[C@@H]2CC(=O)[C@H](C)/C=C(\C)[C@@H](O)[C@@H](OC)C(=O)[C@H](C)C[C@H](C)/C=C/C=C/C=C(\C)[C@H](N(O)C(=O)OC(C)C)C[C@@H]3CC[C@@H](C)[C@@](O)(O3)C(=O)C(=O)N3CCCC[C@H]3C(=O)O2)CC[C@H]1O	220 nM
1.56 µg/mL (≈ 1.56 µM)	12.5 µg/mL (≈ 12.5 µM)	12.5 µg/mL (≈ 12.5 µM)	6.25 µg/mL (≈ 6.24 µM)	~100 µg/mL (≈ 99.9 µM)	Weak	0.78 µg/mL (≈ 0.779 µM)	~100 µg/mL (≈ 99.9 µM)	Weak	Weak		CCCOC(=O)N(O)[C@H]1C[C@@H]2CC[C@@H](C)[C@@](O)(O2)C(=O)C(=O)N2CCCC[C@H]2C(=O)O[C@H]([C@H](C)C[C@@H]2CC[C@@H](O)[C@H](OC)C2)CC(=O)[C@H](C)/C=C(\C)[C@@H](O)[C@@H](OC)C(=O)[C@H](C)C[C@H](C)/C=C/C=C/C=C/1C	900 nM
1.56 µg/mL (≈ 1.63 µM)	25 µg/mL (≈ 26.1 µM)	12.5 µg/mL (≈ 13 µM)	3.12 µg/mL (≈ 3.26 µM)	~100 µg/mL (≈ 104 µM)	Weak	3.12 µg/mL (≈ 3.26 µM)	~100 µg/mL (≈ 104 µM)	Weak	Weak	~100 µg/mL (≈ 104 µM)	CO[C@@H]1C[C@H](C[C@@H](C)[C@@H]2CC(=O)[C@H](C)/C=C(\C)[C@@H](O)[C@@H](OC)C(=O)[C@H](C)C[C@H](C)/C=C/C=C/C=C(\C)[C@H](N(O)C(N)=O)C[C@@H]3CC[C@@H](C)[C@@](O)(O3)C(=O)C(=O)N3CCCC[C@H]3C(=O)O2)CC[C@H]1O	379 nM
	3.12 µg/mL (≈ 3.15 µM)	3.12 µg/mL (≈ 3.15 µM)	3.12 µg/mL (≈ 3.15 µM)			1.56 µg/mL (≈ 1.57 µM)					CO[C@H]1C[C@@H]2CC[C@@H](C)[C@@](O)(O2)C(=O)C(=O)N2CCCC[C@H]2C(=O)O[C@H]([C@H](C)C[C@@H]2CC[C@@H](OC(=O)N(C)O)[C@H](OC)C2)CC(=O)[C@H](C)/C=C(\C)[C@@H](O)[C@@H](OC)C(=O)[C@H](C)C[C@H](C)CCCC/C=C/1C	434 nM
